Test results reported in ChEMBL document CHEMBL1201862, “PubChem BioAssay data set” (2004).
Active and inactive are the calls of the source.

Key:
[1] = NIH-3T3 fibroblast cytotoxicity, dose response, cytotoxicity control, cell-based, fluorescence, Alamar Blue, secondary assay (AID 2327); type: functional;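 note: NIH-3T3 mouse fibroblasts cultured with fluconazole at 8 µg/mL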
Aminopeptidase N = target: T1, Aminopeptidase N (Plasmodium falciparum FcB1/Columbia, UniProt O96935); test: malaria alanyl aminopeptidase activity blockers – biochemical, fluorogenic H-Leu-NHMec substrate, 1536-well (AID 1445); parameters: species or system Plasmodium falciparum 3D7, 3D7
T1 sequence (O96935 whole entry): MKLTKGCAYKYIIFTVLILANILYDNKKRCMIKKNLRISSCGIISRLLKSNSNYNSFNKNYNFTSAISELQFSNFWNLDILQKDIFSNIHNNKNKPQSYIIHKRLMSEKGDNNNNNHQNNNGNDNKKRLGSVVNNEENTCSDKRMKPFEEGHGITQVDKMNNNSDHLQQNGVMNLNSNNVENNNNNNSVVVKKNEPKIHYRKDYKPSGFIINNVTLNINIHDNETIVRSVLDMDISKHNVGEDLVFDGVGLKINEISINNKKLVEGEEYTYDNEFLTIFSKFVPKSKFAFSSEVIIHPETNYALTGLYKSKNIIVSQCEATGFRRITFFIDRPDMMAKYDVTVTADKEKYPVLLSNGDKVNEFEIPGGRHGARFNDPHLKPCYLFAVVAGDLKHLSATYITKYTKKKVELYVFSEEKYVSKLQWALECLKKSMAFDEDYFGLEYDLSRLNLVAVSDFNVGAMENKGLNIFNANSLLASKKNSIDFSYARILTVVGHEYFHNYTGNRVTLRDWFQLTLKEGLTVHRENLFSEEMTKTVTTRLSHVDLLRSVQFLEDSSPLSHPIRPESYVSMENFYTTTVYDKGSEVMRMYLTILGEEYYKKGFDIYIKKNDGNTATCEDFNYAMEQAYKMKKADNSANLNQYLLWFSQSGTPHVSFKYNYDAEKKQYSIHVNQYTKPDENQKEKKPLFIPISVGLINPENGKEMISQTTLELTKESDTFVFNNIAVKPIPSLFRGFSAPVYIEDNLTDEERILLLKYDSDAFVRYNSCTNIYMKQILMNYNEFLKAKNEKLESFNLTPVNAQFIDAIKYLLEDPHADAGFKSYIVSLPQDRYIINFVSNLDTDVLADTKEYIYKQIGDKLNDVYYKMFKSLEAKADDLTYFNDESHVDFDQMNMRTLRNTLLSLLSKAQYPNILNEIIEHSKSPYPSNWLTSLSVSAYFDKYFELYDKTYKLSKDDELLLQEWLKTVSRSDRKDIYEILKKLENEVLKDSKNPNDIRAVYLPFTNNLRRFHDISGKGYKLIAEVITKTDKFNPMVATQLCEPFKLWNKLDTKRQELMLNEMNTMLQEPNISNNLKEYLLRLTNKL

cells [2] = type: functional, cell-based
[3] = fluconazole-exposed Candida albicans growth modulators – fluorescence, retest, confirmation (AID 2467); type: functional, cell-based
cells [4] = type: functional, cell-based; remark: listed apart in the source
[5] = THP-1 cell cytotoxicity, dose response, cytotoxicity control for non-replicating M. tuberculosis project (AID 489025); type: functional
[6] = HepG2 cell cytotoxicity, dose response, cytotoxicity control for non-replicating M. tuberculosis project (AID 489018); type: functional; conditions: Mycobacterium tuberculosis
[7] = Vero E6 cell cytotoxicity, dose response, cytotoxicity control for non-replicating M. tuberculosis project, secondary assay (AID 492998); type: functional, VeroE6; conditions: Vero C1008
HEK293 = test: EBV LMP1 TES2 canonical NF-kB signalling blockers – cell-based, HEK293, luciferase, cherry-pick, dose response (AID 588343); type: functional; conditions: Homo sapiens
[8] = target: T2, Polyadenylate-binding protein 1 (Homo sapiens, UniProt P11940); test: MLLE binding blockers, Cy5 peptide tracer – biochemical, fluorescence polarization, Cy5-PAM2 peptide, secondary, miRNA deadenylation inhibitor project, dose response (AID 602260); type: functional; conditions: read-out: IC50_Mean
T2 sequence (P11940 whole entry, the tested form may be a part): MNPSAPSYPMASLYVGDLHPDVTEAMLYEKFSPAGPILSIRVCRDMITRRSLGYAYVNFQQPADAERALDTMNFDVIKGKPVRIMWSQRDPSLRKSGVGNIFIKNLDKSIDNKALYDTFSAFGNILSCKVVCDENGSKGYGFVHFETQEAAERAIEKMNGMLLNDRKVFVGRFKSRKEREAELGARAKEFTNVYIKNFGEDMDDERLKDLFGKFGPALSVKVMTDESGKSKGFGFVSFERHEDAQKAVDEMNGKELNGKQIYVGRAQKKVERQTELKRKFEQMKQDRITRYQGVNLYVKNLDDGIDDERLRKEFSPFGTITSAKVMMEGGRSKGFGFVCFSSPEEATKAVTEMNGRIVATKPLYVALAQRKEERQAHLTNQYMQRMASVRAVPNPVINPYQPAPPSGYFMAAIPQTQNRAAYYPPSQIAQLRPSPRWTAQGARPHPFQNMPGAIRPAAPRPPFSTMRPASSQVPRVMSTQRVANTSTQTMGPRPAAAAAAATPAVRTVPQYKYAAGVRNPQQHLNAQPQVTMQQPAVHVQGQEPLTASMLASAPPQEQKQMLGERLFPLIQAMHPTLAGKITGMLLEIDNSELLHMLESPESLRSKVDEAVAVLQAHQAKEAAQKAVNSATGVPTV

[9] = target: T2, Polyadenylate-binding protein 1; test: MLLE domain peptide-binding blockers, IC50 – biochemical, fluorescence polarization, FITC-PAM2 peptide, dose response (AID 602259); type: functional; conditions: read-out: IC50_Mean
[10] = target: T3, Replicative DNA helicase DnaB (Mycobacterium tuberculosis, UniProt P9WMR3); test: DnaB intein splicing inhibitors, dose response, biochemical, cell-free fluorescence (AID 449749); type: functional
T3 sequence (P9WMR3 whole entry): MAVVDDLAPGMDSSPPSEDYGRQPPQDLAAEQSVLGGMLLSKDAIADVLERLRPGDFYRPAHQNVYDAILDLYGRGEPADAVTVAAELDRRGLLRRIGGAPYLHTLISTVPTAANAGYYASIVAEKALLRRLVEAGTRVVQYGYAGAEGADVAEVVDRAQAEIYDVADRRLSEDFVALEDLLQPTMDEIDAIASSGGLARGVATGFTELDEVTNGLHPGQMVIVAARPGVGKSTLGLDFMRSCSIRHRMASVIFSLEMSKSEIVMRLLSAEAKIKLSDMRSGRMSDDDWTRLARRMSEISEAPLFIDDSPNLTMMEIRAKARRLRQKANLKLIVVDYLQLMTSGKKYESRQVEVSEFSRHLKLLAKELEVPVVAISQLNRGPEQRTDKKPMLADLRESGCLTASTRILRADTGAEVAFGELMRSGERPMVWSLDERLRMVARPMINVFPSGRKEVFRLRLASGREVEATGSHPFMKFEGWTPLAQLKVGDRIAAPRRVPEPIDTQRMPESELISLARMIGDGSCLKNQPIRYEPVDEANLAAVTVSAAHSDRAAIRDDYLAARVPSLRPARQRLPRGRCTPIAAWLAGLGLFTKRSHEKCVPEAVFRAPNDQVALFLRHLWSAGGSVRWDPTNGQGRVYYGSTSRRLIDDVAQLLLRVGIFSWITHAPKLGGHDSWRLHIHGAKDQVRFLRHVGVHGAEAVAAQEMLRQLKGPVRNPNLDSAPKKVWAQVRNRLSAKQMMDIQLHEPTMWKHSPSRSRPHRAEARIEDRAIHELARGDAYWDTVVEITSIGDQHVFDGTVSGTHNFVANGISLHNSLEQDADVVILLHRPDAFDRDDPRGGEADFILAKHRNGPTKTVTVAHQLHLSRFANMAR

Protein RecA = target: T4, Protein RecA (Mycobacterium tuberculosis, UniProt P9WHJ3); test: Fluorescence Cell-Free Homogeneous Dose Retest to Identify Inhibitors of RecA-Intein Splicing Activity. [Related pubchem assays (depositor defined):AID2097, AID2223, AID489010, AID492950]; type: functional
T4 sequence (P9WHJ3 whole entry): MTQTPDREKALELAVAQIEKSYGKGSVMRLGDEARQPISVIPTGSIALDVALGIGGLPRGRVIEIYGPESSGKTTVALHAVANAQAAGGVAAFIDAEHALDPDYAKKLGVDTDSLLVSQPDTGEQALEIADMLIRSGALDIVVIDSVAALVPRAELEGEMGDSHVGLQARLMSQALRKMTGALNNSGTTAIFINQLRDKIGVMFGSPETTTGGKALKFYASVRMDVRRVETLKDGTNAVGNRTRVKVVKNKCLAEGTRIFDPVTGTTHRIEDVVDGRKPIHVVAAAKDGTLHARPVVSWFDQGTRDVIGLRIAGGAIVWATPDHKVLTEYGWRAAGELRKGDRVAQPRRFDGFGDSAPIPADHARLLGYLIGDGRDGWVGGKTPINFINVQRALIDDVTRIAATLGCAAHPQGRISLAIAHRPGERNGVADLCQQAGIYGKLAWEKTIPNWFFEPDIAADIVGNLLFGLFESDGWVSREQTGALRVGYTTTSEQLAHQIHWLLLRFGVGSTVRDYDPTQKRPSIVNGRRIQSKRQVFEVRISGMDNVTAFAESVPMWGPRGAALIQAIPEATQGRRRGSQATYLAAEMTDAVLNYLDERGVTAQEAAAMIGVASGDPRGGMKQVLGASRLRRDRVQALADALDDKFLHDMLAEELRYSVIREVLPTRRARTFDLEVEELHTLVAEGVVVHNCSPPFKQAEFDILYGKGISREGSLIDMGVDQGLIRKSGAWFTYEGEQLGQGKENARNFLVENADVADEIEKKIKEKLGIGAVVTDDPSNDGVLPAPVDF

[11] = luciferase reporter signal suppression in cells – H4 neuroglioma cells, luminescence, dose response (AID 1990); type: functional, cell-based
[12] = Luminescence Cell-Based Dose Response HTS to Identify Inhibitors of 5'UTR Stem-Loop Driven Prion Protein mRNA Translation in H4 Neuroglioblastoma Cells. [Related pubchem assays: 1827 (Project Summary), 1813 (Primary HTS)]; type: functional
[13] = alpha-synuclein stem-loop luciferase translation blockers – H4 neuroglioma cells, luminescence, confirmation (AID 1988); type: functional, cell-based
[14] = target: Glucose-6-phosphate 1-dehydrogenase (Homo sapiens, UniProt P11413); test: inhibition of Homo sapiens G6PD, dose series – biochemical, fluorescence, selectivity assay for P. falciparum G6PD inhibitor project, dose response (AID 504792); type: functional
Chain of Glucose-6-phosphate 1-dehydrogenase (P11413 whole entry): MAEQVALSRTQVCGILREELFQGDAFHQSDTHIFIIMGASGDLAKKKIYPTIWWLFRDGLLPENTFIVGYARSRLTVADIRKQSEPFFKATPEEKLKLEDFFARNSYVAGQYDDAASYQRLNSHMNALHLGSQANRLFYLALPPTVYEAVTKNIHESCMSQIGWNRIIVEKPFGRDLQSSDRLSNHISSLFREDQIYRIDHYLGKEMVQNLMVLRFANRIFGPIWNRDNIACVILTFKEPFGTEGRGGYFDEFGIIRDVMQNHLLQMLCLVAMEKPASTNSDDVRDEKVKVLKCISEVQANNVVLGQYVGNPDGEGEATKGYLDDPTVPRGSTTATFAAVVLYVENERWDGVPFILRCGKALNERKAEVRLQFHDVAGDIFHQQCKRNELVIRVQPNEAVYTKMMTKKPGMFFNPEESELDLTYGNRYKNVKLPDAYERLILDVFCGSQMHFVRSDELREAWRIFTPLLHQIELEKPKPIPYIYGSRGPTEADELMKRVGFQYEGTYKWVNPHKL

[15] = target: T5, Microphthalmia-associated transcription factor (Homo sapiens, UniProt O75030); test: reducers of TRPM1 reporter luminescence, concentration series – cell-based, SK-MEL-5, cherry-picked, set 3, MITF inhibitor project, dose response (AID 493073); type: functional;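 note: SK-MEL-5 melanoma cells with luciferase driven by the MITF target TRPM1 promoter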
T5 sequence (O75030 whole entry): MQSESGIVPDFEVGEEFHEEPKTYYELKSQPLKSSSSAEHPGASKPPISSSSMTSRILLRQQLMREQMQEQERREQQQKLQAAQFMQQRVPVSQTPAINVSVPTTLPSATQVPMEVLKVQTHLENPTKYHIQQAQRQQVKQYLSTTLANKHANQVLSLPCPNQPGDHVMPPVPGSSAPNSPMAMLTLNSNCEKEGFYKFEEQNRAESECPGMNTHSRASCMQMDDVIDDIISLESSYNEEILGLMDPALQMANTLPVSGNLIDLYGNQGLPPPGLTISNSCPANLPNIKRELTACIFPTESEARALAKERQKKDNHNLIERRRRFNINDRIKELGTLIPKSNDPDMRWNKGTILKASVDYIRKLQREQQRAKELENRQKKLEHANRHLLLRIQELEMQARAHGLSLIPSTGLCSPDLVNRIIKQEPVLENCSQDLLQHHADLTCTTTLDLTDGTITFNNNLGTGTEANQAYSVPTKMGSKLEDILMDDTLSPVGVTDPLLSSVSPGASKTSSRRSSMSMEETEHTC

Large T antigen = Large T antigen (Simian virus 40, UniProt P03070); type: functional, Betapolyomavirus macacae;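 note: Confirmatory-stage PubChem screen for compounds that inhibit SV40 T antigen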
Chain of Large T antigen (P03070 whole entry): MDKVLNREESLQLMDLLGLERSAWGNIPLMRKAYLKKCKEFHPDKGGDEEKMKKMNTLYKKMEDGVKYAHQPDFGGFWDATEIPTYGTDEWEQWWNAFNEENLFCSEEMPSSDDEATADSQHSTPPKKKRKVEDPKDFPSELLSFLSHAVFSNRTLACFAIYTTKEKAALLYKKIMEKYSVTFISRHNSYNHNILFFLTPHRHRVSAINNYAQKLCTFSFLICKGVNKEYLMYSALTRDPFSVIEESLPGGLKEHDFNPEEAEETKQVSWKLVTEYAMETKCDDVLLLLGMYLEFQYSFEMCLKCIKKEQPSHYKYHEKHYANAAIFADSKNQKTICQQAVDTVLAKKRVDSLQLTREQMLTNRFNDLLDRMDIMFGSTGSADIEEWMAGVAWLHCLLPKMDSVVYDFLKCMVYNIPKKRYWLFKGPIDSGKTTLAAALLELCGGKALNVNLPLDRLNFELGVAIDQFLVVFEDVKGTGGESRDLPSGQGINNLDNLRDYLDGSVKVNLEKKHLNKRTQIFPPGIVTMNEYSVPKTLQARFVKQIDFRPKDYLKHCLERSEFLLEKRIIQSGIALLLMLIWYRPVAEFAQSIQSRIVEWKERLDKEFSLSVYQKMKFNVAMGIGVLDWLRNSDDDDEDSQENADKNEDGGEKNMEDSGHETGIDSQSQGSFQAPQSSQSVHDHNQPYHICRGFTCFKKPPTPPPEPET

[16] = intracellular Trypanosoma cruzi inhibitors in host cells – cell-based, plate reader, cherry-pick samples, set 3, dose response (AID 651818); type: functional;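 note: compounds incubated with infected cells for about four days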
INS1 = test: INS-1E survival protection against cytokine death – cell-based, luminescence, retest, dose response (AID 449756); type: functional; conditions: Rattus norvegicus;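 note: cell death triggered by IL-1 beta plus TNF-alpha plus IFN-gamma mixture; protective hits raise ATP signal compared with cytokine alone wells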

For `O=C(N/N=C/c1cc(Br)ccc1O)c1ccccc1Cl`, the EC50 [1] was > 160 µM (inactive), the IC50 (Aminopeptidase N) was 8.06 µM (active) and the EC50 (cells [2]) was 103 µM (active). The EC50 [3] was > 38 µM (not active), the EC50 (cells [4]) was > 350 µM (not active) and the CC50 [5] was 2.16 µM (active). The CC50 [6] was 8.07 µM (active), the CC50 [7] was 6.98 µM (active) and the AC50 (HEK293) was 18.9 µM (active).

With `Cc1ccc(C2CC2C(=O)NN=C(S)Nc2ccc(Cl)cc2)cc1` (stereo not given) the IC50 [8] was > 66 µM (inactive) and the IC50 [9] was > 66 µM (inactive).

For `O=C(/C=C/Nc1cccc(C(F)(F)F)c1)C(F)(F)F`, the AC50 (HEK293) was > 350 µM (inactive).

In the case of `O=C(CCS(=O)(=O)c1ccccc1)Nc1nccs1`, the AC50 (HEK293) is reported as 48.6 µM (active).

With `COc1ccccc1N1CCN(C(=O)CCC(=O)N2CCN(c3ccc(F)cc3)CC2)CC1` the AC50 (HEK293) was 186 µM (active).

For `Cc1ccc(SC(=O)c2c(C)noc2-c2cc(C)on2)cc1`, the AC50 [10] was 6.38 µM (active), the EC50 (Protein RecA) was 8.74 µM (active) and the IC50 [8] was > 66 µM (inactive). For the same compound, the IC50 [9] was > 66 µM (inactive).

For `CCn1c(N)c(C(=O)NC2CCCCC2)sc1=S`, the IC50 [8] was > 66 µM (inactive) and the IC50 [9] was > 66 µM (inactive).

With `CCN1CCCC1CNC(=O)c1ccc2c(c1)NC(=O)/C(=C\c1ccc(C)cc1)S2` (stereo not given) the EC50 [11] was > 120 µM (not active), the EC50 [12] was 16 µM (active) and the EC50 [13] was > 120 µM (not active). For the same compound, the IC50 [14] was > 80 µM (inactive) and the AC50 [15] was 18.9 µM (active).

In the case of `Oc1ccc(/C=N/NC(=S)Nc2cccnc2)cc1`, the IC50 (Large T antigen) is reported as 19.4 µM (active), the IC50 [8] is reported as > 66 µM (inactive) and the IC50 [9] is reported as > 66 µM (inactive).

For `Cc1ccc(S(=O)(=O)Nc2cccc3c2O[C@@H](CN(C)Cc2ccc(C(=O)Nc4ccccc4N)cc2)[C@@H](C)CN([C@@H](C)CO)C3=O)cc1`, the AC50 [16] was 2.17 µM (active).

With `COc1ccc(NC(=O)Nc2cccc3c2O[C@H](CN(C)Cc2ccc(C(=O)Nc4ccccc4N)cc2)[C@H](C)CN([C@@H](C)CO)C3=O)cc1` the AC50 [16] was 5.98 µM (active).

With `COc1ccc(NC(=O)Nc2ccc3c(c2)CC(=O)N([C@H](C)CO)C[C@@H](C)[C@@H](CN(C)Cc2ccc(-c4ccccc4)cc2)O3)cc1` the AC50 [16] was 3.14 µM (active).

In the case of `Cc1noc(C)c1NC(=O)Nc1cccc2c1O[C@H](CN(C)Cc1ccc(C(F)(F)F)cc1)[C@@H](C)CN([C@H](C)CO)C2=O`, the AC50 [16] is reported as 10.4 µM (active).

For `COc1ccc(S(=O)(=O)Nc2ccc3c(c2)CC(=O)N([C@H](C)CO)C[C@@H](C)[C@@H](CN(C)S(=O)(=O)c2ccc(Cl)cc2)O3)cc1`, the AC50 [16] was 1.97 µM (active).

With `C(=N\Nc1nc2ccccc2[nH]1)/c1cccc2nccnc12` the EC50 [11] was 18.5 µM (active), the EC50 (cells [2]) was > 350 µM (not active) and the EC50 [12] was 9.69 µM (active). For the same compound, the EC50 [13] was 5.54 µM (active), the EC50 (cells [4]) was > 350 µM (not active) and the AC50 (HEK293) was 105 µM (active).

In the case of `NC(=S)N/N=C/c1c(O)ccc2ccccc12`, the EC50 [11] is reported as 24.5 µM (active), the EC50 [12] is reported as 22.8 µM (active) and the EC50 [13] is reported as 11.6 µM (active). The AC50 (INS1) was 1.09 µM (active), the IC50 [8] was > 66 µM (inactive) and the IC50 [9] was > 66 µM (inactive).
